Tested on: adult beagle dogs
Test: Metformin-induced retrograde giant contractions (RGCs) and vomiting in beagle dogs, with or without intravenous ondansetron
Assay type: in vivo, dog
Procedure: Contractions of the smooth muscle of the gastrointestinal tracts of the dogs were monitored with strain gauge force transducers to permit detection of retrograde giant contractions (RGCs). The times at which either RGCs or vomiting occurred were recorded. Vomiting is always preceded by RGCs, while RGCs may also occur without vomiting and are generally thought to be an indication of nausea.

Q: For `Cc1nccn1CC1CCc2c(c3ccccc3n2C)C1=O` (stereo not shown) [Ondansetron, 1,2,3 ,9-Tetrahydro-9-methyl-3-[(2-methyl1-H-imidazole-1-yl)methyl]-4H-carbazol-4-one], which “Time at which one RGC and vomit occurred after metformin administration” value (Dog A, Test 2, ondansetron 0.15 mg/kg i.v. 15 min before metformin 25 mg/kg) is on record?
A: 179 minutes after metformin

Q: And the “Observations (RGCs, vomiting)” value (Dog A, Test 3, ondansetron 0.15 mg/kg i.v. 15 min before metformin 25 mg/kg)?
A: no RGCs or vomiting occurred

Q: What about the “Observations (RGCs, vomiting)” value (Dog B, Tests 3 and 4, ondansetron 0.15 mg/kg i.v. 15 min before metformin 50 mg/kg) of the same molecule?
A: no RGCs or vomiting occurred

Q: What about the “Suppression of the emetic effects of a metformin dosage” value (overall conclusion from the dog tests) of the same molecule?
A: effective in suppressing the emetic effects

Source: patent publication US6451808B1 (DepoMed, Inc., priority 2000, dated 2002)
